Key:
[1] = target: T1, human TLR8 (Homo sapiens, UniProt Q9NR97); assay: NFκB-luciferase reporter assay in HEK293 cells transfected with human TLR8 (HEK293-TLR8); type: cell-based; details: HEK293-TLR8, 10 μM IRM, 16 hours
T1 construct: expressed in transfected cells; host or cells: HEK293 (ATCC CRL-1573), pIRES vector, G-418 selected
T1 sequence (Q9NR97 27-1041): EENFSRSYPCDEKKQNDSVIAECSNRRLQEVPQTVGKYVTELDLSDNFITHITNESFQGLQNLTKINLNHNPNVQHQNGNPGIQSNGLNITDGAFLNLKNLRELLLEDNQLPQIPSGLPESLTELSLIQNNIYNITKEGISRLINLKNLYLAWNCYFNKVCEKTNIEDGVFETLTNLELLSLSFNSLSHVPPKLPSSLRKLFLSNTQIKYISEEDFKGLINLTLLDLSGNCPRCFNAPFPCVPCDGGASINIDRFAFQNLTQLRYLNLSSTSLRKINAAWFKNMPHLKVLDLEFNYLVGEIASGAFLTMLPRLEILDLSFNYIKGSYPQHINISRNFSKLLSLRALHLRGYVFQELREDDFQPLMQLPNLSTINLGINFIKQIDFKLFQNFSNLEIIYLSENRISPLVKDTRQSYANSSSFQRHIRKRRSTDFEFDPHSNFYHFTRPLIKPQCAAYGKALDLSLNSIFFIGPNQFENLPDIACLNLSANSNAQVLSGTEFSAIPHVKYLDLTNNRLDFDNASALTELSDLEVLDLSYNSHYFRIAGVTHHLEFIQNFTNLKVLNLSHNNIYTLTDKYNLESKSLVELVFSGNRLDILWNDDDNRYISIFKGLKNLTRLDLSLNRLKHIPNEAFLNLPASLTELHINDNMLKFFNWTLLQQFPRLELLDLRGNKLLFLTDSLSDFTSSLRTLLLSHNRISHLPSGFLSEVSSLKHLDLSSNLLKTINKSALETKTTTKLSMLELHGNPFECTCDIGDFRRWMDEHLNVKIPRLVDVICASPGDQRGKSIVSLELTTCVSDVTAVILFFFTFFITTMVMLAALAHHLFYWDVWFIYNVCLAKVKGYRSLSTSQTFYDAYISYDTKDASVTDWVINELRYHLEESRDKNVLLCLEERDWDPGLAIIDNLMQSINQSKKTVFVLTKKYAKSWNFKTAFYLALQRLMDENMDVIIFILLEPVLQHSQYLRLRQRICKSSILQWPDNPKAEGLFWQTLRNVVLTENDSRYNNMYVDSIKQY
Procedure: (§1) A compound was identified as increasing cellular activity mediated through a given TLR if it induced at least a two-fold increase in NFκB-induced luciferase signal compared to the control.
(§2) HEK293 medium was prepared from 90% Minimum Essential Medium (MEM) with 2 mM L-glutamine and Earle's Balanced Salt Solution (Invitrogen Corp., Rockville, Md.) adjusted to contain 1.5 g/L sodium bicarbonate, 0.1 mM non-essential amino acids, and 1.0 mM sodium pyruvate; 10% heat-inactivated fetal calf serum. HEK293 cells were cultured by incubating cells in HEK293 medium overnight at 37° C., 8% CO2.
(§3) The cells were co-transfected with (1) pIRES (BD Biosciences Clontech, Palo Alto, Calif.) either (a) unmodified (HEK293-vector), (b) containing an expressible human TLR7 gene (HEK293-TLR7), or (c) containing an expressible human TLR8 gene (HEK293-TLR8), and (2) NFκB-luc reporter (Stratagene, La Jolla, Calif.) in a 10:1 ratio with Fugene 6 transfection reagent (Roche Diagnostics Corp., Indianapolis, Ind.) following the manufacturer's instructions.
(§4) The cells were stimulated with 1 μL of IRM compounds at 1 mM in DMSO (final IRM concentration of 10 μM) or 1 μL DMSO as a control. The plates were then incubated an additional 16 hours at 37° C., 5% CO2. The luciferase signal was read using the LucLite kit (Packard Instrument Co., Meriden, Conn.). Luminescence was measured on an LMAX luminometer (Molecular Devices Corp., Sunnyvale, Calif.).

[2] = target: T2, TLR7 (Homo sapiens, UniProt Q9NYK1); assay: NFκB-luciferase reporter assay in HEK293 cells transfected with human TLR7 (HEK293-TLR7); type: cell-based; set-up: expressed in transfected cells; host or cells: HEK293 (ATCC CRL-1573), pIRES vector, G-418 selected; details: HEK293-TLR7, 10 μM IRM, 16 hours
T2 sequence (Q9NYK1 27-1049): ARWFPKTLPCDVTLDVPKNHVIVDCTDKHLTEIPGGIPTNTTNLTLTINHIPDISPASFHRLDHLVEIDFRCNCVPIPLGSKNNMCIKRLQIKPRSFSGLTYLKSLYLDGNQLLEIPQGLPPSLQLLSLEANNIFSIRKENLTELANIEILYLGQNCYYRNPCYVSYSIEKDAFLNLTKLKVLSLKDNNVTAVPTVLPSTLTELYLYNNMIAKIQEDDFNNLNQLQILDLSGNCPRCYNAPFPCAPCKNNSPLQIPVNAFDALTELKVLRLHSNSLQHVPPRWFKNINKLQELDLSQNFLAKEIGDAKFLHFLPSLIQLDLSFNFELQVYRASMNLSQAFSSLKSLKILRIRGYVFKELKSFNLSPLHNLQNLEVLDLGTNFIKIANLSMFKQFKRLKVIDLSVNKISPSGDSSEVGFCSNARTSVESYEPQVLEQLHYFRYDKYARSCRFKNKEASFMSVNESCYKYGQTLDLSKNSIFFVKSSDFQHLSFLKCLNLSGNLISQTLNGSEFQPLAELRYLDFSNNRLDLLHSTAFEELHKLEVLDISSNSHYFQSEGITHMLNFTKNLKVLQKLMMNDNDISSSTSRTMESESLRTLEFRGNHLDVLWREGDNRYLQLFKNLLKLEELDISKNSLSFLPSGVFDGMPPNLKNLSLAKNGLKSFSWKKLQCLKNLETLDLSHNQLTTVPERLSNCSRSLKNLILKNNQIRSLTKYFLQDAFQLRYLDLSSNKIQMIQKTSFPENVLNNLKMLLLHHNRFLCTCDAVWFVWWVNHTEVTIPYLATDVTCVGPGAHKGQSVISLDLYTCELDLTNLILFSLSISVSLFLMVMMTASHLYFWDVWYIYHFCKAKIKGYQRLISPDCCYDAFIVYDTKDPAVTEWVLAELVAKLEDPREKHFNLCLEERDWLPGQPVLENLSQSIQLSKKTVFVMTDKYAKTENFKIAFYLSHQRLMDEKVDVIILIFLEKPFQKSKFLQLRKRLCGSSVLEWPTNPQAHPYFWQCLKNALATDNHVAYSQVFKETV
Procedure: as §1, §2, §3, §4

Row | Structure (SMILES) | TLR8: fold increase of NFκB-induced luciferase signal compared to a DMSO control [1] | TLR7: fold increase of NFκB-induced luciferase signal compared to a DMSO control [2]
1 | CCOCc1nc2c(N)nc3ccccc3c2n1CC(C)C [IRM1, 2-(ethoxymethyl)-1-(2-methylpropyl)-1H-imidazo[4,5-c]quinolin-4-amine] | 1.02 fold increase | 4.05 fold increase
2 | COCCc1nc2c(N)nc3ccccc3c2n1CCOCCN(C)C(=O)C1CCCCC1 [IRM3, N-(2-{2-[4-amino-2-(2-methoxyethyl)-1H-imidazo[4,5-c]quinolin-1-yl]ethoxy}ethyl)-N-methylcyclohexanecarboxamide] | 1.14 fold increase | 6.37 fold increase
3 | CCCCc1nc2c(N)nc3ccccc3c2n1CCCCCS(C)(=O)=O [IRM6, 2-butyl-1-[5-(methylsulfonyl)pentyl]-1H-imidazo[4,5-c]quinolin-4-amine] | 0.90 fold increase | 8.46 fold increase
4 | CCc1nc2c(N)nc3ccccc3c2n1CCCCNC(=O)C1CCCCC1 [IRM8, N-[4-(4-amino-2-ethyl-1H-imidazo[4,5-c]quinolin-1-yl)butyl]cyclohexanecarboxamide] | 0.99 fold increase | 6.04 fold increase
5 | CCc1nc2c(N)nc3ccccc3c2n1CCCCSc1cc(Cl)cc(Cl)c1 [IRM14, 1-{4-[(3,5-dichlorophenyl)thio]butyl}-2-ethyl-1H-imidazo[4,5-c]quinolin-4-amine] | 4.18 fold increase | 0.67 fold increase
6 | CCOCc1nc2c(N)nc3c(c2n1CC(C)(C)O)CCCC3 [IRM16, 4-amino-2-ethoxymethyl-α,α-dimethyl-6,7,8,9-tetrahydro-1H-imidazo[4,5-c]quinoline-1-ethanol] | 8.64 fold increase | 5.54 fold increase
7 | COCCc1nc2c(N)nc3ccccc3c2n1CCOCCNC(=O)Nc1ccccc1 [IRM19, N-(2-{2-[4-amino-2-(2-methoxyethyl)-1H-imidazo[4,5-c]quinolin-1-yl)ethoxy}ethyl)-N′-phenylurea] | 7.25 fold increase | 2.45 fold increase
8 | CCC(C)NC(=S)NCCn1c(CCOC)nc2c(N)nc3ccccc3c21 (stereo not drawn) [IRM21, N-{2-[4-amino-2-(2-methoxyethyl)-1H-imidazo[4,5-c]quinolin-1-yl]ethyl}-N′-sec-butylthiourea] | 5.92 fold increase | 7.08 fold increase
9 | COCCc1nc2c(N)nc3c(c2n1CC(C)(C)NS(C)(=O)=O)CCCC3 [IRM22, N-{2-[4-amino-2-(2-methoxyethyl)-6,7,8,9-tetrahydro-1H-imidazo[4,5-c]quinolin-1-yl]-1,1-dimethylethyl}methanesulfonamide] | 7.37 fold increase | 6.57 fold increase

— patent US20040171086A1, “Selective modulation of TLR-mediated biological activity” (3M Innovative Properties Company, priority 2003, published 2004)
